The results in this text go back to paper PMC6295333 (Biochemistry, 2018).

In the assay the target is Nicotine oxidoreductase (NicA2) (Pseudomonas putida, UniProt F8G0P2). The experiment in a line: X-ray crystal structure at […] Å. In kind it is binding.
Sequence of Nicotine oxidoreductase (NicA2) (F8G0P2 whole entry): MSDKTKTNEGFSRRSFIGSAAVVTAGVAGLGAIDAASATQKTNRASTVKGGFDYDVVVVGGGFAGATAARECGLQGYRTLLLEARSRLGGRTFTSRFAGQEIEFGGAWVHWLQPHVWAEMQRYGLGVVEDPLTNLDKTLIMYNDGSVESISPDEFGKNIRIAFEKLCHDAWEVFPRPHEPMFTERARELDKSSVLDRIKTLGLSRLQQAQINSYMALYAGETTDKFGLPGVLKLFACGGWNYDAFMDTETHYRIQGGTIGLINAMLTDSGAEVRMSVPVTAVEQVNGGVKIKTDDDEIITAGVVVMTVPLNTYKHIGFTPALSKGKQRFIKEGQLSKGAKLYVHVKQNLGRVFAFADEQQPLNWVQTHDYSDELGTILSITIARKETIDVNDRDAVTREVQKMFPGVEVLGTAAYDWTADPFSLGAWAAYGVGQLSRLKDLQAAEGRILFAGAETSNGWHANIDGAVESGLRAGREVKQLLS

As to `Cc1cc2nc3c(=O)[nH]c(=O)nc-3n(C[C@H](O)[C@H](O)[C@H](O)COP(=O)(O)OP(=O)(O)OC[C@H]3O[C@@H](n4cnc5c(N)ncnc54)[C@H](O)[C@@H]3O)c2cc1C` [FAD], the “X-ray crystal structure at 2.65 Å” value is on record as “The general positioning of FAD is clearly defined in the electron density maps”.
